Source: PubChem BioAssay AID1963858 (Molecular Pharmacology Branch, DTP, NCI, 2024)

Tested on: HOP-62 multicell spheroids with HUVEC/MSC, viability
Test: Anticancer human tumor HOP-62 cell line growth inhibition [KRAS2];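 note: viability read after a week of compound exposure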;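 for viability, T/C: 100% = DMSO vehicle-treated spheroids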
Details: for IC50: curve of first compound; for viability, T/C: stronger effect = lower value
Procedure, shortened: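 KRAS-mutant tumor cells were grown as spheroids with HUVEC endothelial cells and human MSCs as stroma. Targeted agents were tested alone and with KRAS pathway inhibitors. Doses started at or near clinical Cmax, or 10 microM, descending half-log.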

[1] = second compound 0.1 µM, first compound 0.01 µM
[2] = second compound 0.1 µM, first compound 0.0316 µM
[3] = second compound 0.1 µM, first compound 0.1 µM
[4] = second compound 0.1 µM, first compound 0.316 µM
[5] = second compound 0.1 µM, first compound 1 µM
[6] = second compound 0.1 µM, first compound 3.16 µM
[7] = second compound 0.316 µM, first compound 0.01 µM
[8] = second compound 0.316 µM, first compound 0.0316 µM
[9] = second compound 0.316 µM, first compound 0.1 µM
[10] = second compound 0.316 µM, first compound 0.316 µM
[11] = second compound 0.316 µM, first compound 1 µM
[12] = second compound 0.316 µM, first compound 3.16 µM
[13] = second compound 1 µM, first compound 0.01 µM
[14] = second compound 1 µM, first compound 0.0316 µM
[15] = second compound 1 µM, first compound 0.1 µM
[16] = second compound 1 µM, first compound 0.316 µM
[17] = second compound 1 µM, first compound 1 µM
[18] = second compound 1 µM, first compound 3.16 µM
[19] = second compound 3.16 µM, first compound 0.01 µM
[20] = second compound 3.16 µM, first compound 0.0316 µM
[21] = second compound 3.16 µM, first compound 0.1 µM
[22] = second compound 3.16 µM, first compound 0.316 µM
[23] = second compound 3.16 µM, first compound 1 µM
[24] = second compound 3.16 µM, first compound 3.16 µM
[25] = second compound 10 µM, first compound 0.01 µM
[26] = second compound 10 µM, first compound 0.0316 µM
[27] = second compound 10 µM, first compound 0.1 µM
[28] = second compound 10 µM, first compound 0.316 µM
[29] = second compound 10 µM, first compound 1 µM
[30] = second compound 10 µM, first compound 3.16 µM
[31] = second compound 0.1 µM, first compound 10 µM
[32] = second compound 0.316 µM, first compound 10 µM
[33] = second compound 1 µM, first compound 10 µM
[34] = second compound 3.16 µM, first compound 10 µM
[35] = second compound 10 µM, first compound 10 µM

SMILES | IC50 (second compound 0.1 µM) | IC50 (second compound 0.316 µM) | IC50 (second compound 1 µM) | IC50 (second compound 3.16 µM) | IC50 (second compound 10 µM) | viability, T/C [2] | viability, T/C [3] | viability, T/C [4] | viability, T/C [5] | viability, T/C [6] | viability, T/C [8] | viability, T/C [9] | viability, T/C [10] | viability, T/C [11] | viability, T/C [14] | viability, T/C [15] | viability, T/C [20] | viability, T/C [21] | viability, T/C [26] | viability, T/C [27] | also measured
CC(=O)OC12COC1CC(O)C1(C)C(=O)C(O)C3=C(C)C(OC(=O)C(O)C(NC(=O)OC(C)(C)C)c4ccccc4)CC(O)(C(OC(=O)c4ccccc4)C21)C3(C)C (stereo not given) + COc1cc2nc(C)nc(NC(C)c3cc(N)cc(C(F)(F)F)c3)c2cc1OC1CCOC1 | < 10 nM | < 10 nM | < 10 nM | < 10 nM | < 10 nM | 32.3% | 36.2% | 32.7% | 37.5% | 53.4% | 35.6% | 34.4% | 27.5% | 40.9% | 35.1% | 34.2% | 27.3% | 27.2% | 31.1% | 51.7% | viability, T/C [1]: 40%; viability, T/C [7]: 38.5%; viability, T/C [12]: 41%; viability, T/C [13]: 29.7%; viability, T/C [16]: 39.5%; viability, T/C [17]: 39.6%; viability, T/C [18]: 38.7%; viability, T/C [19]: 29.7%; viability, T/C [22]: 37%; viability, T/C [23]: 35.9%; viability, T/C [24]: 39.5%; viability, T/C [25]: 34.2%; viability, T/C [28]: 30.7%; viability, T/C [29]: 33.7%; viability, T/C [30]: 40.6%
CN(C)C/C=C/C(=O)Nc1cc2c(Nc3ccc(F)c(Cl)c3)ncnc2cc1O[C@H]1CCOC1 + COc1cc2nc(C)nc(NC(C)c3cc(N)cc(C(F)(F)F)c3)c2cc1OC1CCOC1 | > 100 nM | > 100 nM | > 100 nM | > 100 nM | > 100 nM | 105% | 97% | – | – | – | 100% | 97.7% | – | – | 101% | 111% | 59.8% | 64.3% | 59.9% | 70.8% | viability, T/C (second compound 0.1 µM, first compound 0.000316 µM): 105%; viability, T/C (second compound 0.1 µM, first compound 0.001 µM): 109%; viability, T/C (second compound 0.1 µM, first compound 0.00316 µM): 105%; viability, T/C [1]: 107%; viability, T/C (second compound 0.316 µM, first compound 0.000316 µM): 115%; viability, T/C (second compound 0.316 µM, first compound 0.001 µM): 107%; viability, T/C (second compound 0.316 µM, first compound 0.00316 µM): 112%; viability, T/C [7]: 96.7%; viability, T/C (second compound 1 µM, first compound 0.000316 µM): 107%; viability, T/C (second compound 1 µM, first compound 0.001 µM): 102%; viability, T/C (second compound 1 µM, first compound 0.00316 µM): 114%; viability, T/C [13]: 106%; viability, T/C (second compound 3.16 µM, first compound 0.000316 µM): 72.3%; viability, T/C (second compound 3.16 µM, first compound 0.001 µM): 64.1%; viability, T/C (second compound 3.16 µM, first compound 0.00316 µM): 70%; viability, T/C [19]: 64.2%; viability, T/C (second compound 10 µM, first compound 0.000316 µM): 73.7%; viability, T/C (second compound 10 µM, first compound 0.001 µM): 51.6%; viability, T/C (second compound 10 µM, first compound 0.00316 µM): 49.6%; viability, T/C [25]: 62.7%
COC(=O)c1ccc2c(C(=Nc3ccc(N(C)C(=O)CN4CCN(C)CC4)cc3)c3ccccc3)c(O)[nH]c2c1 + COc1cc2nc(C)nc(NC(C)c3cc(N)cc(C(F)(F)F)c3)c2cc1OC1CCOC1 | 797 nM | 325 nM | 52.2 nM | < 31.6 nM | < 31.6 nM | 98.5% | 85.7% | 53% | 50.9% | 34.9% | 67% | 57.1% | 51.5% | 25.5% | 54% | 46.1% | 45.2% | 32.6% | 39.9% | 32.6% | viability, T/C [31]: 10.4%; viability, T/C [12]: 26.3%; viability, T/C [32]: 20.8%; viability, T/C [16]: 33.4%; viability, T/C [17]: 28.7%; viability, T/C [18]: 26.7%; viability, T/C [33]: 16.2%; viability, T/C [22]: 36.5%; viability, T/C [23]: 24.5%; viability, T/C [24]: 18.9%; viability, T/C [34]: 0.46%; viability, T/C [28]: 30.7%; viability, T/C [29]: 24.5%; viability, T/C [30]: 0.7%; viability, T/C [35]: 0.2%
O=C(c1cc(Cc2n[nH]c(=O)c3ccccc23)ccc1F)N1CCN(C(=O)C2CC2)CC1 + COc1cc2nc(C)nc(NC(C)c3cc(N)cc(C(F)(F)F)c3)c2cc1OC1CCOC1 | > 10000 nM | 7020 nM | > 10000 nM | 4690 nM | 97.4 nM | 99.5% | 102% | 106% | 102% | 85.1% | 90.8% | 85.6% | 83.3% | 92.3% | 102% | 98.2% | 77% | 61.9% | 97.5% | 45.3% | viability, T/C [31]: 52.7%; viability, T/C [12]: 67.9%; viability, T/C [32]: 42%; viability, T/C [16]: 93.4%; viability, T/C [17]: 94.6%; viability, T/C [18]: 85.4%; viability, T/C [33]: 50.5%; viability, T/C [22]: 64%; viability, T/C [23]: 69.3%; viability, T/C [24]: 56.3%; viability, T/C [34]: 36.1%; viability, T/C [28]: 55.5%; viability, T/C [29]: 60.9%; viability, T/C [30]: 47%; viability, T/C [35]: 35.1%
